Data published in publication PMC3665789 (PLoS ONE, 2013).
Where two headings read alike, the source gives them in different places.

Columns and labels:
[1] = test system: HIV-1 NL4.3^2G12res. (X4); details: read-out: EC50 (µM ± SEM); MT-4 cells; NL4.3 resistant to mAb 2G12; MTS/PES
[2] = Cytotoxicity assay (MTS/PES); type: cell-based
Method: Cytotoxicity in PBMCs (3 days), MT-4 (5 days), HUT-78 (1 day), C8166-(5 days), HEL (3 days) and Daudi cells (3 days) was measured using the MTS/PES method. The duration of the assays is given between brackets.

[3] = Cytotoxicity assay (flow cytometry); type: cell-based; details: 3 days, read-out: 50% cytotoxic concentration (CC50)
Method: The vaginal epithelial cell lines HEC-1A and VK2 (500 µl; at a density of 1×10^6 cells/ml) were seeded in a 24-well plate and incubated for 3 days with various concentrations of LabyA1 (500 µl). Cell cytotoxicity was determined microscopically and by flow cytometry (FACSCalibur, BD Biosciences, Erembodegem, Belgium).

[4] = test system: DC-SIGN-mediated transmission of HIV-1 HE; details: for p24 Ag concentration: without compound 263.9 ng/ml
Method: Raji.DC-SIGN^+ cells (200 µl; 2.5×10^6 cells/ml) were exposed to high amounts of HIV-1 HE (100 µl; p24, ∼3×10^6 pg/ml) for 1 h at 37°C. Unbound virus from the Raji.DC-SIGN^+ cells was removed by washing twice with cell culture medium. In the meantime, 100 µl of various concentrations of LabyA1 were added in a 96-well plate and incubated for 1 h with the C8166 target T cells (50 µl; 2×10^6 cells/ml). The same amount of virus exposed Raji.DC-SIGN^+ cells (Raji.DC-SIGN/HE) were mixed with the antiviral drug exposed C8166 target T cells.

[5] = test system: HIV-1 BCF-06 (clinical isolate; X4); details: PBMCs; BCF-06, group O; p27 Ag ELISA
[6] = test system: HSV-2 wild-type RV-124 (clinical isolate); details: HEL cells; HSV-2 RV-124; CPE
[7] = test system: HIV-1 HE (R5/X4); details: read-out: EC50 (µM ± SEM), PBMCs, p24 Ag ELISA
[8] = test system: HIV-1 DJ259 (clinical isolate; R5); details: PBMCs; DJ259, group M subtype C; p24 Ag ELISA
[9] = test system: HIV-1 IIIB (X4); details: read-out: EC50 (µM ± SEM), MT-4 cells, MTS/PES method
[10] = test system: HIV-1 NL4.3 (X4); details: read-out: EC50 (µM ± SEM), MT-4 cells, MTS/PES method
[11] = test system: HIV-1 BaL (R5); details: read-out: EC50 (µM ± SEM), MDM, p24 Ag ELISA
Method: Afterwards, the non-adherent cells were gently mixed and removed from the adherent cell layer. The cells were carefully washed and this washing step was repeated after 6 days of incubation at 37°C. The adherent cells were then infected with HIV-1 R5 BaL.
MDM were seeded in a 48-well plate in 1 ml medium. […] Each concentration was tested in triplicate. After an incubation of 30 minutes at 37°C, 1000 pg/well of p24 Ag of HIV-1 R5 BaL was added. Three weeks post-infection, supernatant was collected and viral replication evaluated by p24 HIV-1 Ag ELISA.

[12] = biological target: T1, CD4 (Homo sapiens, UniProt P01730); test: Anti-CD4 mAb binding on SupT1 cells (flow cytometry); details: SupT1 T cells; 9.6 µM or 1.9 µM
T1 construct: endogenous in cells; host or cells: SupT1 T cells (ATCC)
Method: To determine the interaction of LabyA1 with CD4, SupT1 cells (100 µl; 3×10^6 cells/ml) were incubated for 20 min at 4°C with 9.6 µM, 1.9 µM or 0 µM LabyA1. After extensive washing with PBS/FCS2% (PBS supplemented with 2% FCS), anti-CD4-PE conjugated mAbs RPA-T4 (eBioscience, Vienna, Austria), MT441 (Ancell, Enzo Life sciences) and OKT-4 (eBioscience) were added for 30 min at 4°C. For aspecific background staining, cells were incubated with SimulTest™ Control (IgGγ1-FITC/IgGγ2a-PE) (BD Biosciences). After washing, and fixation with 1% formaldehyde solution, samples were analyzed using the FACSCalibur and CellQuest software (BD Biosciences). The same protocol was applied for anti-CXCR4 evaluation using the fluorochrome conjugated mAbs 12G5-PE and 2B11-FITC (both BD Biosciences).

[13] = test system: HIV-1 NL4.3^RALres. (X4); details: read-out: EC50 (µM ± SEM); MT-4 cells; NL4.3 resistant to raltegravir (RAL); MTS/PES
[14] = test system: HSV-2; test: Cellular binding experiment: pre-treatment of cells, compound removed, HSV-2 infection; type: cell-based; details: data not shown
[15] = test system: HIV-1 NL4.3 binding to CD4+ SupT1 cells; type: cell-based; details: LabyA1 9.6 µM, sCD4 10 µg/ml, AMD3100 12 µM; no compound MFI 9.8, background 3.9
[16] = test system: HIV-1 BaL (R5); details: read-out: EC50 (µM ± SEM), PBMCs, p24 Ag ELISA
[17] = biological target: CXCR4 (Homo sapiens, UniProt P61073); test: Intracellular calcium mobilization (FLIPR), U87.CD4.CXCR4 cells; type: cell-based; set-up: expressed in transfected cells; host or cells: U87.CD4.CXCR4 (human astroglioma U87); details: 9.6 µM
Method: Calcium (Ca^2+) mobilization assays were performed by the use of a fluorometric imaging plate reader (FLIPR) (Molecular Devices, Sunnyvale, CA) as described previously. Briefly, U87.CD4.CCR5 or U87.CD4.CXCR4 cells were digested by trypsin and seeded in gelatine-coated black-wall 96-well microplates at 2×10^4 cells per well. The next day, the cells were loaded with the fluorescent calcium indicator Fluo-3 acetoxymethyl ester (Molecular Probes, Leiden, The Netherlands) at 4 µM for 45 min at 37°C. Cells were washed 3 times in assay buffer (Hanks’ balanced salt solution with 20 mM HEPES buffer and 0.2% bovine serum albumin, pH 7.4) and incubated for 10 min with Laby A1. The intracellular calcium mobilization induced by LD78β in U87.CD4.CCR5 cells or by SDF-1 in U87.CD4.CXCR4 cells was then measured at 37°C by monitoring the fluorescence as a function of time simultaneously in all the wells. In addition, potential intracellular calcium mobilization induced by Laby A1 was also investigated.

CXCR4, sequence (P61073 whole entry): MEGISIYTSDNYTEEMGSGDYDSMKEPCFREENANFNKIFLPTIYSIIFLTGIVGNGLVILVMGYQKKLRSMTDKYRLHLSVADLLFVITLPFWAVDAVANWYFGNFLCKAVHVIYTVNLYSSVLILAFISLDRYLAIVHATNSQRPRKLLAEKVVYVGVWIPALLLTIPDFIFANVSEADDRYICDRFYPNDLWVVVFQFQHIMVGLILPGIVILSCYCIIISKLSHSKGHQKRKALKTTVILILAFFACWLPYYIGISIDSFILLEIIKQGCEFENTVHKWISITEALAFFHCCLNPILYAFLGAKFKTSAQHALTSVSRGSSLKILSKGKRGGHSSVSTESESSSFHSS

## C/C=C1\NC(=O)[C@H](Cc2ccccc2)NC(=O)[C@@H]2CCCN2C(=O)[C@H](C(C)C)NC(=O)[C@H](Cc2c[nH]c3ccccc23)NC(=O)[C@]23CSC[C@H](NC1=O)C(=O)N[C@H](C(=O)O)CSSC[C@H](NC(=O)[C@@H]1CSC[C@]4(C[C@H](N)C(=O)N[C@@H](CC(N)=O)C(=O)N[C@@H](C)C(=O)N4)C(=O)N[C@@H](C(C)C)C(=O)N[C@@H](Cc4c[nH]c5ccccc45)C(=O)N[C@@H](CCC(=O)O)C(=O)N1)C(=O)N[C@@H](C2)C(=O)N[C@@H]([C@@H](C)O)C(=O)NCC(=O)N3 [LabyA1, labyrinthopeptin A1]
[1]
  EC50: 2.2 ± 0.3 µM
[2]; C8166 cells, 5 days
  CC50: 23 µM
[2]; Daudi cells, 3 days
  CC50: > 48 µM
[2]; HUT-78 cells, 1 day
  CC50: > 31 µM
[2]; MT-4 cells, 5 days
  CC50: 33 µM
[2]; PBMCs, 3 days
  CC50: 45 µM
[3]; HEC-1A (endometrium carcinoma)
  CC50: 34 µM
[3]; VK2 (vaginal epithelial)
  CC50: > 48 µM
[4]; 9.6 µM
  giant cell formation: fully protected the cells from giant cell formation
  p24 Ag concentration: < 25 pg/mL
[4]; 1.9 and 0.19 µM
  inhibitory effect: not detectable
  p24 Ag concentration: 393700 pg/mL
[4]; read-out: EC50, DC-SIGN-mediated transmission and subsequent replication of HIV-1, Raji.DC-SIGN/HE cocultured with C8166 T cells, 24 h
  EC50: 4.1 µM
[5]
  EC50: 0.83 ± 0.33 µM
[6]
  EC50: 1.4 ± 0.4 µM
[7]
  EC50: 1.8 ± 0.3 µM
[8]
  EC50: 0.94 ± 0.43 µM
[9]
  EC50: 2 ± 0.6 µM
[10]
  EC50: 1.7 ± 0.4 µM
[11]
  EC50: 2.4 ± 0.8 µM
[12]
  effect on binding of anti-CD4 mAbs RPA-T4, MT441 and OKT4: no effect
[13]
  EC50: 0.88 ± 0.08 µM
[14]
  inhibition of HSV-2 replication after pre-treatment of cells for 1 h and removal of compound: lost its ability to inhibit HSV-2 replication
[15]
  virus binding, mean fluorescence intensity (MFI) of anti-gp120 (9205) mAb: 9.2
[16]
  EC50: 3.3 ± 0.4 µM
[17]
  induction of calcium signaling by compound itself: could not induce by itself calcium signaling
[17]; 100 ng/ml SDF-1α
  inhibition of SDF-1α (CXCL12)-induced intracellular calcium flux: could also not inhibit the intracellular calcium flux
